Measured values published in US4966900A, “Cephalosporin β-lactam compound and medicinal composition” (priority 1986, dated 1990).
Counter-ions that a name gives are not always drawn. Like-named read-outs stand apart in the source and are kept apart here.

Tests used:
in vivo = assay: in vivo; design: species or system Macaco; settings: monkey, 20 mg/kg
Method: Each of 20 mg/kg of the compounds obtained in Example 2, Example 25 and Example 28 was administered parenterally to Macaco and the half-time in blood was measured.
The concentrations of the compounds were measured according to HPLC method. Novapack C18 or Microbondapack C18 (trade name, produced by Waters Co.) was used as a column. Further, cefpiramide was used as a control drug.

E. cloacae 1Y247 = assay: MIC; assay type: cell-based
Method: (§1) The minimum inhibition concentrations (MIC) of the compounds obtained in the respective examples described above were measured according to the standard method of Japanese Chemotherapy Association.

S. aureus IAA498 = assay: MIC; assay type: cell-based; settings: Staphylococcus aureus, Table 5
Method: as §1

S. aureus Smith = assay: MIC; settings: Staphylococcus aureus
E. coli ML4707 = assay: MIC; settings: Escherichia coli, ML4707, E. coli ML4707
E. coli GN5482 = assay: MIC; settings: Escherichia coli, GN5482, E. coli GN5482
K. pneumoniae 4at521 = assay: MIC
E. colacae GN7471 = assay: MIC
E. cloacae 908RN = assay: MIC; settings: Enterobacter cloacae
C. freundii GN7391 = assay: MIC; settings: Citrobacter freundii, GN7391, C. freundii GN7391
S. marcescens GN10857 = assay: MIC; settings: Serratia marcescens, GN10857, S. marcescens GN10857
P. vulgaris GN7919 = assay: MIC
P. aeruginosa GN10362 = assay: MIC
P. aeruginosa 4au542 = assay: MIC; settings: Pseudomonas aeruginosa, 4AU542, P. aeruginosa 4au542
P. aeruginosa 5D58-1 = assay: MIC; settings: Pseudomonas aeruginosa, 5D581, P. aeruginosa 5D58-1
P. cepacia OF189 = assay: MIC; settings: Burkholderia cepacia, OF189, P. cepacia OF189
P. maltophilia OF247 = assay: MIC; settings: Stenotrophomonas maltophilia
E. cloacae 5D52-2 = assay: MIC
E. cloacae 5D63-2 = assay: MIC
E. cloacae 1V25 = assay: MIC; settings: Enterobacter cloacae
C. freundii 5D60-1 = assay: MIC
C. freundii 1R523 = assay: MIC
C. freundii 1R524 = assay: MIC
C. freundii 1R526 = assay: MIC
C. freundii 1R527 = assay: MIC
C. freundii 1U589 = assay: MIC
C. freundii 1U692 = assay: MIC
A. calcoaceticu OF1063 = assay: MIC; assay type: cell-based; settings: Table 2, sodium salt
Method: (§2) The minimum inhibition concentrations (MIC) of the compounds obtained in Example 1 and Example 2 were measured according to the standard method of Japanese Chemotherapy Association.

A. xylosoxidans OF1001 = assay: MIC; assay type: cell-based; settings: Achromobacter xylosoxidans, Table 2, sodium salt
Method: as §2

E. coli NIHJ JC-2 = assay: MIC; assay type: cell-based; settings: Escherichia coli, NIHJJC2, Table 2, sodium salt
Method: as §2

[1] = Enterobacter cloacae, Table 6, read-out: MIC
[2] = Pseudomonas aeruginosa, GN10362
[3] = Enterobacter cloacae, Table 3, sodium salt, read-out: MIC
[4] = E. cloacae 908RN, Table 3, sodium salt
[5] = E. colacae 908RN, Table 2, sodium salt

CC(C)(ON=C(C(=O)NC1C(=O)N2C(C(=O)O)=C(CSc3c4c(nc5c(C(=O)O)cnn35)CCC4)CSC12)c1csc(N)n1)C(=O)NNC(=O)c1ccc(O)c(O)c1 (stereo not shown) [Example 28, 7-{2-[2-Amino-1,3-thiazol-4-yl]-2-[1-(3-(3,4-dihydroxybenzoyl)carbazoyl)-1-methylethoxyimino]acetamide}-3-[(3-carboxy-6,7-dihydro-5H-cyclopenta[f]pyrazolo[1,5-a]pyrimidin-8-yl)thiomethyl]-3-cephem-4-carboxylic acid.hydrochloride]
4.7 h: half-life (in vivo)
25 µg/mL: MIC (S. aureus IAA498)
0.1 µg/mL: MIC (P. aeruginosa 5D58-1; Table 5) | MIC (E. cloacae 5D52-2; Enterobacter cloacae, 5D522) | MIC (C. freundii 1R524; Citrobacter freundii, 1R524) | MIC (C. freundii 1R526; Citrobacter freundii, 1R526) | MIC (C. freundii 1R527; Citrobacter freundii, 1R527)
0.39 µg/mL: MIC (P. aeruginosa 4au542; Table 5) | MIC (P. maltophilia OF247; Table 5) | MIC (C. freundii 1U589; Citrobacter freundii, 1U589) | MIC (C. freundii 1U692; Citrobacter freundii, 1U692)
0.78 µg/mL: MIC (E. cloacae 1Y247; [1]) | MIC (E. colacae GN7471; Table 5) | MIC (E. cloacae 908RN; E. colacae 908RN, Table 5) | MIC (C. freundii GN7391; Table 5) | MIC (P. vulgaris GN7919; Proteus vulgaris, GN7919)
1.56 µg/mL: MIC (E. cloacae 908RN; E. cloacae 908RN, Table 6) | MIC (C. freundii GN7391; Table 6)
< 0.006 µg/mL: MIC (E. coli GN5482; Table 5) | MIC (K. pneumoniae 4at521; Klebsiella pneumoniae, 4AT521)
0.2 µg/mL: MIC (S. marcescens GN10857; Table 5) | MIC (E. cloacae 5D63-2; Enterobacter cloacae, 5D632) | MIC (E. cloacae 1V25) | MIC (C. freundii 1R523; Citrobacter freundii, 1R523)
0.05 µg/mL: MIC (P. aeruginosa GN10362; [2])
0.012 µg/mL: MIC (E. coli ML4707; Table 5) | MIC (P. cepacia OF189; Table 5)
12.5 µg/mL: MIC (S. aureus Smith; Table 5) | MIC (C. freundii 5D60-1; Citrobacter freundii, 5D601)

Cc1cc(SCC2=C(C(=O)O)N3C(=O)C(NC(=O)C(=NOC(C)(C)C(=O)NNC(=O)c4ccc(O)c(O)c4)c4csc(N)n4)C3SC2)n2ncnc2n1 (stereo not shown) [Example 12, 7-{2-[2-Amino-1,3-thiazol-4-yl]-2-[1-(3-(3,4-dihydroxybenzoyl)carbazoyl)-1-methylethoxyimino]acetamide}-3-[(5-methyl-s-triazolo[1,5-a]-pyrimidin-7-yl)thiomethyl]-3-cephem-4-carboxylic acid.hydrochloride]
0.39 µg/mL: MIC (S. marcescens GN10857; Table 5) | MIC (P. maltophilia OF247; Table 5)
12.5 µg/mL: MIC (A. calcoaceticu OF1063) | MIC (C. freundii GN7391; Table 2, sodium salt)
3.13 µg/mL: MIC (S. aureus Smith; Table 5) | MIC (E. colacae GN7471; Table 2, sodium salt) | MIC (E. cloacae 908RN; [4]) | MIC (E. cloacae 908RN; E. cloacae 908RN, Table 6) | MIC (E. cloacae 908RN; [5]) | MIC (E. cloacae 908RN; E. colacae 908RN, Table 5) | MIC (E. cloacae 5D63-2; E. cloacae 5D63-2, Table 6) | MIC (E. cloacae 5D63-2; Enterobacter cloacae, 5D632) | MIC (C. freundii 5D60-1; C. freundii 5D60-1, Table 6) | MIC (C. freundii 5D60-1; Citrobacter freundii, 5D601) | MIC (C. freundii 1U692; C. freundii 1U692, Table 6) | MIC (C. freundii 1U692; Citrobacter freundii, 1U692)
6.25 µg/mL: MIC (S. aureus IAA498) | MIC (C. freundii GN7391; Table 5)
1.56 µg/mL: MIC (E. colacae GN7471; Table 5) | MIC (S. marcescens GN10857; Table 2, sodium salt) | MIC (C. freundii 1R526; C. freundii 1R526, Table 6) | MIC (C. freundii 1R526; Citrobacter freundii, 1R526) | MIC (C. freundii 1U589; C. freundii 1U589, Table 6) | MIC (C. freundii 1U589; Citrobacter freundii, 1U589)
0.012 µg/mL: MIC (E. coli ML4707; Table 2, sodium salt) | MIC (E. coli GN5482; Table 5) | MIC (K. pneumoniae 4at521; K. pneumoniae 4at521, Table 5) | MIC (K. pneumoniae 4at521; Klebsiella pneumoniae, 4AT521) | MIC (P. cepacia OF189; Table 5)
0.78 µg/mL: MIC (A. xylosoxidans OF1001) | MIC (S. aureus Smith; Table 2, sodium salt) | MIC (P. vulgaris GN7919; P. vulgaris Gn7919, Table 5) | MIC (P. vulgaris GN7919; Proteus vulgaris, GN7919) | MIC (P. maltophilia OF247; Table 2, sodium salt) | MIC (C. freundii 1R523; C. freundii 1R523, Table 6) | MIC (C. freundii 1R523; Citrobacter freundii, 1R523) | MIC (C. freundii 1R524; C. freundii 1R524, Table 6) | MIC (C. freundii 1R524; Citrobacter freundii, 1R524) | MIC (C. freundii 1R527; C. freundii 1R527, Table 6) | MIC (C. freundii 1R527; Citrobacter freundii, 1R527)
25 µg/mL: MIC (E. cloacae 1Y247; [3]) | MIC (E. cloacae 1Y247; Table 6) | MIC (C. freundii GN7391; Table 3, sodium salt) | MIC (C. freundii GN7391; Table 6)
< 0.006 µg/mL: MIC (E. coli ML4707; Table 5)
0.1 µg/mL: MIC (E. coli NIHJ JC-2) | MIC (E. coli GN5482; Table 2, sodium salt) | MIC (P. aeruginosa GN10362; P. aeruginosa GN10362, Table 5) | MIC (P. aeruginosa GN10362; [2]) | MIC (P. aeruginosa 4au542; Table 2, sodium salt) | MIC (P. aeruginosa 5D58-1; Table 2, sodium salt)
0.025 µg/mL: MIC (P. cepacia OF189; Table 2, sodium salt)
0.2 µg/mL: MIC (P. aeruginosa 4au542; Table 5) | MIC (P. aeruginosa 5D58-1; Table 5) | MIC (E. cloacae 5D52-2; E. cloacae 5D52-2, Table 6) | MIC (E. cloacae 5D52-2; Enterobacter cloacae, 5D522)

Cc1cc(SCC2=C(C(=O)O)N3C(=O)C(NC(=O)C(=NOC(C)(C)C(=O)NNC(=O)c4ccc(O)c(O)c4)c4csc(N)n4)C3SC2)n2nc(C(=O)O)nc2n1 (stereo not shown) [Example 2]
0.78 µg/mL: MIC (A. xylosoxidans OF1001) | MIC (P. vulgaris GN7919; Proteus vulgaris, GN7919) | MIC (E. cloacae 5D63-2; Enterobacter cloacae, 5D632) | MIC (C. freundii 1R524; Citrobacter freundii, 1R524) | MIC (C. freundii 1R526; Citrobacter freundii, 1R526) | MIC (C. freundii 1R527; Citrobacter freundii, 1R527) | MIC (C. freundii 1U589; Citrobacter freundii, 1U589)
0.012 µg/mL: MIC (K. pneumoniae 4at521; Klebsiella pneumoniae, 4AT521)
1.56 µg/mL: MIC (E. cloacae 908RN; [5]) | MIC (C. freundii 5D60-1; Citrobacter freundii, 5D601) | MIC (C. freundii 1R523; Citrobacter freundii, 1R523) | MIC (C. freundii 1U692; Citrobacter freundii, 1U692)
0.1 µg/mL: MIC (E. coli NIHJ JC-2) | MIC (E. coli GN5482; Table 2, sodium salt)
6.25 µg/mL: MIC (E. cloacae 1Y247; [3]) | MIC (S. aureus Smith; Table 2, sodium salt) | MIC (E. colacae GN7471; Table 2, sodium salt) | MIC (E. cloacae 1V25)
5.3 h: half-life (in vivo)
3.13 µg/mL: MIC (A. calcoaceticu OF1063) | MIC (E. cloacae 908RN; [4])
0.01 µg/mL: MIC (E. coli ML4707; Table 2, sodium salt)
0.39 µg/mL: MIC (P. aeruginosa 5D58-1; Table 2, sodium salt)
< 0.006 µg/mL: MIC (P. cepacia OF189; Table 2, sodium salt)
0.2 µg/mL: MIC (S. marcescens GN10857; Table 2, sodium salt) | MIC (P. aeruginosa GN10362; [2]) | MIC (P. aeruginosa 4au542; Table 2, sodium salt) | MIC (P. maltophilia OF247; Table 2, sodium salt) | MIC (E. cloacae 5D52-2; Enterobacter cloacae, 5D522)
12.5 µg/mL: MIC (C. freundii GN7391; Table 2, sodium salt) | MIC (C. freundii GN7391; Table 3, sodium salt)

Cc1cc(SCC2=C(C(=O)O)N3C(=O)C(NC(=O)C(=NOC(C)(C)C(=O)NNC(=O)c4ccc(O)c(O)c4)c4csc(N)n4)C3SC2)n2ncc(C(=O)O)c2n1 (stereo not shown) [Example 25, 7-{2-[2-amino-1,3-thiazol-4-yl]-2-[1-(3-(3,4-dihydroxybenzoyl)carbazoyl)-1-methylethoxyimino]acetamide}-3-[(3-carboxy-5-methylpyrazolo[1,5-a]pyrimidin-7-yl)thiomethyl]-3-cephem-4-carboxylic acid.hydrochloride]
0.2 µg/mL: MIC (C. freundii 1R523; Citrobacter freundii, 1R523) | MIC (C. freundii 1R526; Citrobacter freundii, 1R526)
0.05 µg/mL: MIC (P. aeruginosa 5D58-1; Table 5)
0.1 µg/mL: MIC (S. marcescens GN10857; Table 5) | MIC (P. aeruginosa 4au542; Table 5) | MIC (P. maltophilia OF247; Table 5) | MIC (C. freundii 1R524; Citrobacter freundii, 1R524) | MIC (C. freundii 1R527; Citrobacter freundii, 1R527)
3.13 µg/mL: MIC (E. colacae GN7471; Table 5) | MIC (E. cloacae 908RN; E. cloacae 908RN, Table 6)
4 h: half-life (in vivo)
0.78 µg/mL: MIC (C. freundii 5D60-1; Citrobacter freundii, 5D601)
12.5 µg/mL: MIC (E. cloacae 1Y247; [1]) | MIC (S. aureus IAA498)
6.25 µg/mL: MIC (S. aureus Smith; Table 5) | MIC (C. freundii GN7391; Table 5) | MIC (C. freundii GN7391; Table 6) | MIC (E. cloacae 1V25)
0.39 µg/mL: MIC (P. vulgaris GN7919; Proteus vulgaris, GN7919) | MIC (E. cloacae 5D52-2; Enterobacter cloacae, 5D522) | MIC (E. cloacae 5D63-2; Enterobacter cloacae, 5D632) | MIC (C. freundii 1U589; Citrobacter freundii, 1U589) | MIC (C. freundii 1U692; Citrobacter freundii, 1U692)
0.025 µg/mL: MIC (P. aeruginosa GN10362; [2])
< 0.006 µg/mL: MIC (E. coli ML4707; Table 5) | MIC (E. coli GN5482; Table 5) | MIC (K. pneumoniae 4at521; Klebsiella pneumoniae, 4AT521) | MIC (P. cepacia OF189; Table 5)
1.56 µg/mL: MIC (E. cloacae 908RN; E. colacae 908RN, Table 5)
